In article PMC11706420, “Establishing a physiologically based pharmacokinetic framework for aldehyde oxidase and dual aldehyde oxidase‐CYP substrates” (CPT: Pharmacometrics & Systems Pharmacology, 2024):
Read-outs that look alike come from different tables or passages of the source.

Legend:
[1] = Microsomal binding (fumic); conditions: for fumic (PBPK input): at incubation protein concentration (0.25 or 0.5 mg/mL)
Description: Microsomal binding (fumic):
(§1) The fraction unbound in human liver microsomes (fumic) of compounds was determined by equilibrium
(§2) dialysis using the high-throughput dialysis method 2 using membranes from HTDialysis, LLC (Gales
(§3) Ferry, CT) having 12 to 14 kDa molecular mass cutoff. Deactivated HLM (by leaving the HLM
(§4) incubation media on the bench overnight at ambient temperature) at 0.25 mg/mL with 2 µM of
(§5) compounds (a final concentration of DMSO as 1%) was added to the donor compartment in 50 mM
(§6) phosphate buffer containing 1 M MgCl2. (150 µL, n=4 per compound). 150 µL of Dulbecco’s PBS
(§7) buffer (pH 7.4) was added to the receiver chamber for each replicate. After reaching equilibrium for 6
(§8) h on a plate shaker (200 rpm) at 37°C in a humidified CO2 incubator (5% CO2), aliquots from both the
(§9) receiver (45 µL) and donor (15 µL) sides of the membrane were matrix matched and analyzed by LC-
(§10) MS/MS. Matrix stability (n=3) and % of recovery (n=4) were assessed.
(§11) Data analysis for binding in microsomal and cytosolic incubations:
(§12) Fraction unbound in microsomal (fumic) and cytosolic (fucyt) incubations were calculated via Eq. S10-11
(§13) based on the ratio of the peak areas of analyte and internal standard.
(§14) 𝑃𝑒𝑎𝑘 𝐴𝑟𝑒𝑎 𝑅𝑎𝑡𝑖𝑜 = (𝑃𝑒𝑎𝑘 𝐴𝑟𝑒𝑎 𝑜𝑓 𝐴𝑛𝑎𝑙𝑦𝑡𝑒)/(𝑃𝑒𝑎𝑘 𝐴𝑟𝑒𝑎 𝑜𝑓 𝐼𝑛𝑡𝑒𝑟𝑛𝑎𝑙 𝑆 tan 𝑑 𝑎𝑟𝑑) (Eq. S10)
(§15) 𝑓𝑢𝑚𝑖𝑐 𝑜𝑟 𝑓𝑢𝑐𝑦𝑡 = (𝑃𝑒𝑎𝑘 𝐴𝑟𝑒𝑎 𝑅𝑎𝑡𝑖𝑜 𝑖𝑛 𝑟𝑒𝑐𝑒𝑖𝑣𝑒𝑟 𝑐𝑜𝑚𝑝𝑎𝑟𝑡𝑚𝑒𝑛𝑡)/
(§16) concentration (0.5 mg/mL) using Hallifax and Houston algorithm (Hallifax and Houston, 2006). Matrix
(§17) stability and recovery were assessed using Eq. S12 and Eq. S13.
(§18) %𝑠𝑡𝑎𝑏𝑖𝑙𝑖𝑡𝑦 = (𝐴𝑣𝑒𝑟𝑎𝑔𝑒 𝑝𝑒𝑎𝑘 𝑎𝑟𝑒𝑎 𝑖𝑛 𝑚𝑎𝑡𝑟𝑖𝑥 𝑎𝑡 𝑡ℎ𝑒 𝑒𝑛𝑑 𝑜𝑓 𝑖𝑛𝑐𝑢𝑏𝑎𝑡𝑖𝑜𝑛)/
(§19) (𝐴𝑣𝑒𝑟𝑎𝑔𝑒 𝑝𝑒𝑎𝑘 𝑎𝑟𝑒𝑎 𝑎𝑡 𝑇 = 0) × 100 (Eq. S12)
%𝑟𝑒𝑐𝑜𝑣𝑒𝑟𝑦 = (𝐴 + 𝐵)/𝐶 × 100 (Eq. S13)
(§20) where A is the average peak area ratio of all matrix samples, B is the average peak area ratio
of all buffer samples multiplied with the buffer dilution factor and C is the average peak area ratio of

[2] = In vitro permeability (Papp), transwell transport; conditions: dog, MDCK
[3] = cited from earlier work
[4] = cited from earlier work; remark: listed apart in the source
[5] = Cytosolic binding (fucyt), human liver cytosol with AO inhibitor; conditions: 1 mg/mL; n=3, mean (CV%)
[6] = Microsomal clearance incubations (substrate depletion); conditions: both, human
Description: Subcellular fractions of human and dog liver were sourced from XenoTech (Kansas City, KS, USA). In vitro CLint,u was measured with substrate depletion and binding assays for all compounds (1 μM) in human liver microsomes (HLM; 0.25–0.5 mg/mL) and HLC (1 mg/mL).
Microsomal clearance incubations (CLint):
Human liver microsomes were stored at −80°C and rapidly thawed just before use at 37°C.
All compounds were mixed with HLM and 50 mM
phosphate buffer. 450 µL of the mixture was added to 1.2mL cluster tubes in a 96-well block in
duplicate and warmed in a water bath (Thermo Scientific Precision™,Waltham MA, USA ) at 37°C for
5 min. Reactions were initiated by the addition of 50 µL from 10 mM of NADPH stock in 50 mM
phosphate buffer (final NADPH concentration, 1 mM). The final incubation contained 1 µM test
compound in 500 µL total volume with 0.02% DMSO. At each time point (5, 10, 20, 30, and 60 min),
60 µL of incubation mixture was added to 120 uL of quench solutions (MeOH:ACN, 1:1, v:v)
containing internal standard (0.5 µM carbutamide). The mixture was centrifuged at 3000 rpm for 20
min (Eppendorf 5810R, Hamburg, Germany). Supernatant was injected to HPLC-MS/MS with for data
Data analysis for substrate depletion assays:
Data from the microsomal and cytosolic incubations were analyzed using GraFit 7 (Erithacus Software,
Horley, UK) to determine the elimination rate constant (k), which was used in CLint calculation (Eq.
S9). A nonlinear single exponential fit was used for all compounds.
𝐶𝐿 = 𝑘 × 𝑣𝑜𝑙𝑢𝑚𝑒 𝑜𝑓 𝑖𝑛𝑐𝑢𝑏𝑎𝑡𝑖𝑜𝑛 (Eq S9)

[7] = cited from earlier work; for fmCYP3A4: ref suppl. 8-12; for fmAO: ref suppl. 8-13
[8] = Cytosolic binding (fucyt), dog liver cytosol; conditions: 1 mg/mL, n=3, mean (CV%)
Description: In vitro data were generated to inform the PBPK models of the selected drugs (Supplement 1 in Appendix S1; Table S1). Subcellular fractions of human and dog liver were sourced from XenoTech (Kansas City, KS, USA). In vitro CLint,u was measured with substrate depletion and binding assays for all compounds (1 μM) in human liver microsomes (HLM; 0.25–0.5 mg/mL) and HLC (1 mg/mL). HLC pool was prepared from livers perfused with Custodiol HTK (histidine tryptophan ketoglutarate) solution, marketed as having preserved “high AO/XO activity.”[15] Dog liver cytosols (DLC; 1 mg/mL) were used to investigate cytosolic binding in the absence of AO. Routine in vitro assays were used to quantify unbound fraction in plasma (fup), blood‐to‐plasma ratio (B/P), and apparent permeability (Papp) through transwell transport assays utilizing canine Mdr1 knockout and empty vector‐transfected MDCKI cells.
𝐶𝐿 = 𝑘 × 𝑣𝑜𝑙𝑢𝑚𝑒 𝑜𝑓 𝑖𝑛𝑐𝑢𝑏𝑎𝑡𝑖𝑜𝑛 (Eq S9)
Cytosolic binding (fucyt):
The fraction unbound in human liver cytosols (fucyt) of compounds was determined by equilibrium
dialysis using the RED device (Thermo Fisher, Waltham MA, USA) with a molecular weight cut-off of
8 kDa. Dog or human liver cytosols at 1 mg/mL with 1 µM of compounds (300 µL, n=3 per compound)
were added to the donor compartment in 100 mM potassium phosphate buffer with final DMSO
liver cytosols to inactivate AO, whereas dog was used as a natural AO knock-out model. 500 µL of 100
mM potassium phosphate buffer (pH 7.35) was added to the receiver chamber for each replicate.
RED device was then sealed with an adhesive foil and incubated on an orbital shaker at 450 rpm (VWR
Symphony) at 37°C with 5 % CO2. After reaching equilibrium for 4 hours, aliquots from both the
receiver (30µL) and donor (30µL) sides of the membrane were matrix matched, and then quenched with
180 µL of cold ACN with 100 nM propranolol (internal standard). The samples were placed in a
Beckman Coulter Allegra x 12R Centrifuge (Brea, CA) for 15 minutes at 3700 rpm. After centrifugation,
the supernatant of each sample was diluted 1:2 and analyzed by LC -MS/ MS. Matrix stability and
recovery were assessed in triplicates and followed identical sample preparation.
Microsomal binding (fumic):
as §1, §2, §3, §4, §5, §6, §7, §8, §9, §10, §11, §12, §13, §14, §15, §16, §17, §18, §19
%𝑟𝑒𝑐𝑜𝑣𝑒𝑟𝑦 = (𝐴 + 𝐵)/𝐶 × 100 (Eq. S13)
as §20

[9] = Plasma protein binding (fup), rapid equilibrium dialysis; format: in vitro ADME, human
Description: (differing in 2 donors) were used for activity and microsomal binding assays, respectively.
The human biological samples were sourced ethically, and their research use was in accord with the terms of the informed consents under an IRB/EC approved protocol.
Determination of plasma protein binding (fup):
Human plasma (male, K2EDTA) was obtained from BioIVT (Baltimore, MD, USA). A pool of n=20 donors was prepared in-house (batch: 16062022). The plasma protein binding of compounds in human was determined by equilibrium dialysis using the rapid equilibrium dialysis (RED) device (Thermo […]
Frozen blank human plasma […]
solution to a final concentration of 1 µM (0.5 % DMSO). 300 µ L of the fortified plasma samples were subjected to dialysis against 500 µL PBS buffer at pH 7.4, for 6 h at 37 °C in triplicate. After dialysis, 200 µl aliquots of the buffer and the plasma compartments were transferred into micronic tubes. To minimize the potential for non -specific binding to the micronic tubes the buffer sam ples were collected on to 50µl of 10 % bovine serum albumin (BSA). For the assessment of test compound stability in plasma, 300 µl aliquots of the spiked plasma solutions were transferred into micronic tubes and incubated in an air heated incubator at 37°C without shaking for 4 and 20 hours. The remaining spiked protein solutions were frozen and used to measure the initial start concentration ( C0) to calculate the recovery. Sample analysis was achieved by LC -MS/MS and absolute quantification of the drug lev els in the buffer and plasma compartments was achieved via a matrix matched calibration curve (in the presence of an internal standard tolbutamide). All buffer and plasma sample sets were matrix matched […]
for analysis. The samples were centrifuged (15 minutes, 3400 g) and supernatants were transferred to a fresh plate for analysis. The unbound concentration (Cu), and the total concentration (CED) were determined by measurement of the concentration of the test compound in the buffer and plasma compartments of the dialysis cells, respectively. The fraction unbound was calculated using Eq. S1.
fuplasma = Cu/CED (Eq. S1)
The percentage recovery was calculated as the ratio of the sum of the amount in the buffer (Au) and plasma (AED) compartments to the amount at time zero (A0) (Eq. S2). The percentage stability was calculated as the ratio of the concentration of the test compound at the end of the incubation (C t) time […]
% recovery = (( Au + AED ) / A0 ) × 100 (Eq. S2)

[10] = cited from earlier work; for logP: octanol-water, 12 (per cell)
[11] = Blood-to-plasma ratio (B/P); format: in vitro ADME, human
From the text: Determination of blood to plasma ratio (B/P):
Whole human blood was collected on the day of the experiment from healthy volunteers. The collection protocol was approved by an independent ethical committee and all donors signed the consent forms. All samples were registered in the Janssen Biobank.
Prewarmed blood aliquots were mixed with the compounds (final concentrations shown in Suppl. Table 5) with a final organic DMSO solvent concentration of ≤0.1% (v/v). After gentle mixing to avoid haemolysis, blood aliquots were immediately collected for protein precipitation (1:1:8 ratios of blood sample:DMSO:ACN) and centrifugation (10 minutes, 3800 g) and the supernatant was used as a 0-minute reference blood sample. At the same time, blood aliquots were taken and centrifuged (10 minutes, 1200 g) to obtain the plasma portion. Plasma aliquots were then immediately collected for protein precipitation (1:1:8 ratios of plasma sample:DMSO:ACN) and centrifugation (10 minutes, 3800 g) and the supernatant was used as a 0-minute reference plasma sample. The remainder of the blood fraction was incubated (30 min at 37 °C). Following incubation, 30 -minute blood and plasma samples were taken and prepared as described for the reference 0-minute samples.
Mean compound concentration values (n=3 replicates) were calculated for both the blood and plasma samples. A blood-to-plasma concentration ratio was then determined using Eq. S4. […]

CYP3A4 = conditions: cited from earlier work
[12] = design: method as in earlier work; conditions: menadione 100 µM; ref 45 (suppl.); cited from earlier work
[13] = corrected with Hallifax&Houston algorithm
[14] = iv: zaleplon 5 mg (M), observed, ref suppl. 22
[15] = iv: zaleplon 5 (F), ziprasidone 5, zoniporide 80 mg, observed, ref suppl. 22,23,13
[16] = observed, ref Table S2/S3 studies
[17] = oral: capmatinib 200, idelalisib 150, lenvatinib 10, zaleplon 5 (F), ziprasidone 20 mg, observed mean or geomean (CV%), ref suppl. 8,14,16,19,22,23
[18] = oral: capmatinib 200, idelalisib 150, lenvatinib 10, zaleplon 5 (F), ziprasidone 20 mg, observed, ref suppl. 8,14,16,19,22,23
[19] = oral: capmatinib 600, zaleplon 5 (M) mg, observed, ref suppl. 8,22
[20] = observed (mass balance), min-max where uncertain
[21] = DDI study with rifampicin (capmatinib 400, idelalisib 150, lenvatinib 24 mg) or carbamazepine (ziprasidone 20 mg), observed, ref suppl. 15,18,21,25
[22] = with itraconazole (capmatinib 200 mg) or ketoconazole (idelalisib 400, lenvatinib 5, ziprasidone 40 mg), observed, ref suppl. 15,10,17,20,24
[23] = with rifampicin (capmatinib 400, idelalisib 150, lenvatinib 24 mg) or carbamazepine (ziprasidone 20 mg), observed, ref suppl. 15,18,21,25

CCN(C(C)=O)c1cccc(-c2ccnc3c(C#N)cnn23)c1 [Zaleplon]
fumic (PBPK input) [1]: 0.964 | Predicted fumic for 1 mg/mL [1, 13]: 0.932 | Papp A→B at 120 min, 5 µM [2]: 38.9 ×10⁻⁶ cm/s | Papp B→A at 120 min, 5 µM [2]: 32.5 ×10⁻⁶ cm/s | AUCinf [3, 14]: 71.7 (12) ng.h/mL | Cmax [3, 14]: 61.4 (26.4) ng/mL | AUCinf [3, 15]: 100 (24) ng.h/mL | Cmax [3, 15]: 62.7 (23.8) ng/mL | CLRenal [3, 16]: Negligible | Cmax [3, 17]: 14.4 (38.9) ng/mL | AUCinf [3, 18]: 31.4 (57.3) ng.h/mL | AUCinf [3, 19]: 22.5 (45.8) ng.h/mL | Cmax [3, 19]: 14.5 (45.5) ng/mL | HH CLint, non-AO ([4]; with 25 μM hydralazine): 0.8[21] μL/min/10^6 hepatocytes | fucyt, Human Liver Cytosol with 5 uM Raloxifene [5]: 0.846 (1.87) | fucyt, Human Liver Cytosol with 50 uM Hydralazine [5]: 1 (1.10) | microsomal CLint at 1 µM ([6]; microsomes): 5.95 µL/min/mg | fmCYP3A4 [7, 20]: 26-43 | fmCYP3A4 (maximum) ([7]; ref suppl. 9-11): 0.43 | fmCYP3A4 (minimum) ([7]; ref suppl. 9-11): 0.26 | fucyt, Dog Liver Cytosol ([8]; no AO inhibitor): 1 | fucyt, Dog Liver Cytosol with 50 uM Hydralazine [8]: 0.84 (3.63) | % Stability in plasma ([9]; 37°C, n=1, at 20h): 104% | logP [10]: 1.3[12]

O=C1Cc2cc(CCN3CCN(c4nsc5ccccc45)CC3)c(Cl)cc2N1 [Ziprasidone]
fumic (PBPK input) [1]: 0.210 | Predicted fumic for 0.5 mg/mL [1, 13]: 0.118 | Predicted fumic for 1 mg/mL [1, 13]: 0.063 | Papp A→B at 120 min, 5 µM [2]: 3.15 ×10⁻⁶ cm/s | Papp B→A at 120 min, 5 µM [2]: 0.843 ×10⁻⁶ cm/s | efflux ratio at 120 min, 5 µM [2]: 0.268 | CLiv/oral [CV%] ([3]; i.v., ref Table S2/S3 studies): 23.04 [14] (i.v.) L/h | AUCinf [3, 15]: 217 (20) ng.h/mL | Cmax [3, 15]: 83 (21) ng/mL | CLRenal [3, 16]: Negligible | Cmax [3, 17]: 64 (28) ng/mL | AUCinf [3, 18]: 514 (27) ng.h/mL | HH CLint (no reaction phenotyping) ([4]; without inhibitor): 21.8[5], ^f μL/min/10^6 hepatocytes | B/P ([11]; 50 ng/mL): 0.44 | B/P ([11]; 1000 ng/mL): 0.47 | B/P (assumed PBPK input) ([11]; assumed from measured 0.455): 0.55 | fucyt, Human Liver Cytosol with 5 uM Raloxifene [5]: 0.337 (4.82) | fucyt, Human Liver Cytosol with 50 uM Hydralazine [5]: 0.356 (2.53) | microsomal CLint at 1 µM ([6]; liver microsomes): 71.9 µL/min/mg | fmAO ([7]; measured in excreta): 0.67 | fmAO ([7]; observed (mass balance), min-max where uncertain, Table S10): 67 | fmCYP3A4 [7, 20]: 33 | fmCYP3A4 [7]: 0.33 | fucyt, Dog Liver Cytosol with 50 uM Hydralazine [8]: 0.288 (3.81) | % Stability in plasma ([9]; male, human, plasma, 20 h, 1 µM): 96.2% | Cmax, control (CYP3A4; DDI study with itraconazole (capmatinib 200 mg) or ketoconazole (idelalisib 400, lenvatinib 5, ziprasidone 40 mg), observed geomean (CV%), ref suppl. 15,10,17,20,24): 89 (30) ng/mL | AUCinf, control (CYP3A4; DDI study with itraconazole (capmatinib 200 mg) or ketoconazole (idelalisib 400, lenvatinib 5, ziprasidone 40 mg), observed, ref suppl. 15,10,17,20,24): 899 (20) ng.h/mL | AUCinf, control (AUC0-12 for ziprasidone) (CYP3A4; [21]): 495 (26) ng.h/mL | Cmax, control (CYP3A4; [21]): 79 (24) ng/mL | AUCinf, interaction (CYP3A4; [22]): 1199 (18) ng.h/mL | Cmax, interaction (CYP3A4; [22]): 119 (25) ng/mL | AUCinf, interaction (AUC0-12 for ziprasidone) (CYP3A4; [23]): 285 (28) ng.h/mL | Cmax, interaction (CYP3A4; [23]): 48 (27) ng/mL | pKa1 ([10]; 47 (per cell)): 8.24[12] | pKa2 ([10]; 47 (per cell)): 6.31[12] | logP [10]: 4.53[12]

CC1=CC(=O)c2ccccc2C1=O [menadione]
inhibition of ziprasidone reduction [12]: 90%
